The results in this text go back to publication PMC6642608, “Putative trehalose biosynthesis proteins function as differential floridoside-6-phosphate synthases to participate in the abiotic stress response in the red alga Pyropia haitanensis” (BMC Plant Biology, 2019).

Holding throughout (test): HPLC-MS of products after alkaline phosphatase
Type in all cases: biochemical
What all share (conditions): 100 mM UDP-galactose, 10 mM MgSO4, pH 8.0 protein buffer, 30 °C, 16 h

One assay concerns the target T1, PhTPS3 (Pyropia haitanensis, UniProt A0A0A7PA46).
T1 construct: E. coli BL21, pET-28a or pET-28a-sumo, His tag, sumo-His tag cut before assay; full-length ORF 1108 aa

The target of the next assay is T2, PhTPS4 (Pyropia haitanensis, UniProt U3GP00).
T2 construct: E. coli BL21, pET-28a or pET-28a-sumo, His tag, sumo-His tag cut before assay; full-length ORF 1008 aa with N-terminal CBM20

The target in a further assay is T3, PhTPS1 (Pyropia haitanensis, UniProt T1UQ24).
T3 construct: E. coli BL21, pET-28a or pET-28a-sumo, His tag, sumo-His tag cut before assay; full-length ORF 1154 aa
T3 sequence (T1UQ24 entry or part of it): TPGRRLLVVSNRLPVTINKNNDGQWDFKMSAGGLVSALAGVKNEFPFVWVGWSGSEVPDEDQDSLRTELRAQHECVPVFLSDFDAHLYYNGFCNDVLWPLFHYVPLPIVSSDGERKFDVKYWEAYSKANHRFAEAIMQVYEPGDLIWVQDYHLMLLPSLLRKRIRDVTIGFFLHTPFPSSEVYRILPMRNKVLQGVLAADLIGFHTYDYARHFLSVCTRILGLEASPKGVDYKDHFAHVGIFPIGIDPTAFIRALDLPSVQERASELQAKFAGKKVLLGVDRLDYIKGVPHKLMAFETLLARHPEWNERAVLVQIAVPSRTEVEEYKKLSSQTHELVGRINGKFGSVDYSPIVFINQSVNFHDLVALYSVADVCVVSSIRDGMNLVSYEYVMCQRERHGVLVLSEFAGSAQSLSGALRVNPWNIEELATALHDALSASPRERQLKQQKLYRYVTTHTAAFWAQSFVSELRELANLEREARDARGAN

T1 sequence (A0A0A7PA46 entry or part of it): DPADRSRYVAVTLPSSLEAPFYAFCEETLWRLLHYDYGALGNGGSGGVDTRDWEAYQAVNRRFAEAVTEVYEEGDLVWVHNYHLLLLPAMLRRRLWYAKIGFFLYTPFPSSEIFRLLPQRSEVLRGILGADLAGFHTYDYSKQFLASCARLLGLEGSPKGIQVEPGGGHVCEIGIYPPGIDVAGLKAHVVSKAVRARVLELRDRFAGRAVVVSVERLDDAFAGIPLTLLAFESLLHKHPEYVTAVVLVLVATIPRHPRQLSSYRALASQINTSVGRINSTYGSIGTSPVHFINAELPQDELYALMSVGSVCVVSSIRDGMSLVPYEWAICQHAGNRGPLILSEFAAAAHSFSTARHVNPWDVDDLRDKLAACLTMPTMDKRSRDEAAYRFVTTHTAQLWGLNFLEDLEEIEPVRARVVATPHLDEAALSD
T2 sequence (U3GP00 entry or part of it): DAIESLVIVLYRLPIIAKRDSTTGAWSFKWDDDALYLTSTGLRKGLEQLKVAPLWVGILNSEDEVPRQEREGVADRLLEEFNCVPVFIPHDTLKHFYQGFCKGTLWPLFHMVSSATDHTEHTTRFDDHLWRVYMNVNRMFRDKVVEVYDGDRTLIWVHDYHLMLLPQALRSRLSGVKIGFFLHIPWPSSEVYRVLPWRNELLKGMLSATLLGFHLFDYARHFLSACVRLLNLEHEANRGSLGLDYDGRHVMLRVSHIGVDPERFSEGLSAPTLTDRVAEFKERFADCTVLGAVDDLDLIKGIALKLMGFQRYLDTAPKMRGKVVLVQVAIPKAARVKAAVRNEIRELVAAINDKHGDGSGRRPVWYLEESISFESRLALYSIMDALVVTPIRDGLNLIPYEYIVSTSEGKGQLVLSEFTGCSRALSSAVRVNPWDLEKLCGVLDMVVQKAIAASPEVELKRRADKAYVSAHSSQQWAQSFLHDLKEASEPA

Take `O=P(O)(O)OC[C@H](O)CO` [G3P]: the “HPLC-MS of products after alkaline phosphatase” value on PhTPS3 was “UDP-Gal and G3P were allowed to react with them”; on PhTPS4 it was “UDP-Gal and G3P were allowed to react with them”; on PhTPS1, “UDP-Gal and G3P were allowed to react with them”.
